Values joined by “and” are separate entries in the source; they are usually repeats but may differ in a detail not shown here. Equal entries are not always repeated. Where a SMILES comes first, the peptide text is derived from it. Bridges are numbered along the chain shown (N, C = ends). [ ]: non-standard residue; d: D form. Orn = NCCC[C@H](N)C(=O)O; Mpa = O=C(O)CCS
Assays:
[1] = ORA levels in maternal organs by LC-MS/MS; assay type: in vivo, pregnant mice; conditions: after LIP-IND-ORA
Excerpt: To enable faster clinical translation of the proposed approach, a clinically used^33 oxytocin receptor antagonist (ORA, or atosiban) was used as the targeting element. […] Thus, the goal of using ORA as a safe targeting moiety for pregnant women was successfully in delivering indomethacin to the uterus directly. The principles of nanomedicine have been applied to optimize tocolytics for the treatment of preterm labor, and the novel drug delivery system can provide a path for a new paradigm-shifting direction to advance the field of obstetrics.

[2] = IND concentrations in maternal uterus and fetus by LC-MS/MS; assay type: in vivo, pregnant CD1 mice; conditions: female, CD1, mouse, intravenous, 1 mg/kg
Description: Biodistribution study in vivo. […] The in vivo doses were maintained across the study. After 4 h, pregnant mice were sacrificed by CO2 inhalation, followed by laparotomy to retrieve maternal liver, uteri, placentas and fetuses. The onset of action of LIP-IND-ORA is unknown when administered intravenously. […] Based on these prior studies, 4 h was chosen as the period of exposure.
Uterine and fetal tissues were homogenized in 1 mL of ice-cold methanol/water (7:3 v/v). Phenacetin (final concentration 20 ng/mL) was added to each sample before centrifugation at 15,000 rpm for 10 min. Supernatant was dried under nitrogen and reconstituted in 0.1% formic acid aqueous solution followed by protein precipitation with acetonitrile (1:2). Samples were centrifuged again, supernatant was transferred to vial and 10 μL was injected to Shimadzu triple quad 8040 MS connected to LC system. […] Method parameters were: LOD=3.9 ng/mL (accuracy 76%, S/N>3); LOQ=15.6 ng/mL (accuracy 85%; CV<10%; S/N>10) with correlation coefficient for linear regression R2=0.992.

[3] = Indomethacin levels in uterus, placenta and fetus after IND or LIP-IND (Example 1); assay type: in vivo, pregnant mouse; conditions: four hours following administration, mean ± sem; for concentration at 4 h: female, mouse
[4] = tested on: strips from uterine biopsies obtained at cesarean section; assay: Human myometrial contractility study (organ bath); conditions: highest concentration of 10^−6
Excerpt: (§1) Uterine contractility ex vivo. An established ex vivo pregnant mouse or human models of uterine contractility was used to measure the ability of LIP-IND-ORA to inhibit uterine contractions. For mice, on GD19, timed-pregnant animals (N=6) underwent CO2 inhalation euthanasia, the maternal uteri were excised and placed into Krebs physiological solution. In the case of human tissue, strips from uterine biopsies obtained at cesarean section from non-laboring, term, healthy women were used. Uterine ring segments, 4 mm in width, were cut, and the fetuses and placentas were gently removed. […]
(§2) Changes in isometric tension were recorded with isometric force transducers (Harvard Apparatus, South Natik, Mass.) connected and stored to an online computer with data acquisition software (WINDAQ-200; DATAQ). The data was acquired and analyzed using Windaq data acquisition system (Dataq Instruments Inc, Akron, Ohio). Spontaneous contractile activity for each uterine ring was analyzed as an integral activity over 40 min before (basal activity) and after application of each study drug. […] OXY induced contractile response was expressed as an integral activity over 20 min of each OXY dose and the baseline uterine contractility54,55,56. […] Data was expressed as mean±SEM.

[5] = tested on: LPS-induced preterm birth; assay: LPS-induced preterm birth in vivo; design: species or system pregnant CD1 mice; conditions: IND 1 mg/kg daily tail vein
Description: Preterm birth in vivo. The established in vivo preterm pregnant mouse model was used to test the ability of LIP-IND-ORA to prevent preterm birth. LPS is a commonly used model to induce labor in murine models. On GD 16, timed-pregnant CD1 mice were administered lipopolysaccharide (LPS, Sigma, USA) (25 μg/kg) via intraperitoneal injection. […] Since the LIP-IND-ORA solution color was visibly pink and due to limited resources to create a placebo, the randomization was not blinded. Each day after the LPS administration, the preterm birth rate was determined as the number of pregnant mice spontaneously delivering prior to GD18. Animals were housed in single cages and were monitored by either direct observation or by video camera for the duration of the treatment period to confirm timing of delivery. The rate of preterm birth was expressed as percent and length of pregnancy after LPS administration was expressed in hours. Results were reported as median±sem.

Prostaglandin E2 (PGE2) [6] = assay: PGE2 levels in uterine tissue after administration (Example 1); assay type: in vivo, pregnant mouse; conditions: four hours following administration
prostaglandin E2 (PGE2) [7] = assay: PGE2 in uterine tissue incubated ex vivo, ELISA; design: species or system mouse; conditions: 40 min incubation, mean±SEM
Description: Another set of pregnant CD1 mice at GD 19 (n=5) was used to evaluate uterus PGE2 levels. […] PGE2 levels in each sample were then determined based on the instructions in the ELISA kit (ADI-901-001, Enzo Life Science, New York, USA). The concentration of PGE2 were expressed as pg/mL and reported as the mean±SEM.

[8] = tested on: uterus isolated from pregnant mice; assay: Uterine contractility ex vivo, pregnant mouse; conditions: absence of oxytocin, 40 min incubation, IND 10-5 mol/L, n=6, mean±SEM
Excerpt: as §1, §2

preterm birth = conditions: prior experiments, 90% in control; cited from earlier work

| concentration at 4 h ([2]; fetus) [ng/g] | concentration at 4 h ([2]; uterus) [ng/g] | concentration at 4 h ([3]; fetus) [ng/g] | concentration at 4 h ([3]; placenta) [ng/g] | concentration at 4 h ([3]; uterus) [ng/g] | Indomethacin level normalized per weight, fetus [3] [ng/g] | Structure (SMILES) | ORA levels in the maternal organs [1] | percent uterine contractions [4] [%] | length of pregnancy after LPS administration [5] [h] | rate of LPS-induced preterm birth ([5]; delivery prior to GD18) [%] | PGE2 levels in the uterus (Prostaglandin E2 (PGE2) [6]) [pg/mL] | PGE2 levels in the uterus exposed ex vivo (prostaglandin E2 (PGE2) [7]) | percent inhibition of uterine contractions [8] | rate of preterm birth (preterm birth) [%] |
| --- | --- | --- | --- | --- | --- | --- | --- | --- | --- | --- | --- | --- | --- | --- |
| – | – | – | – | – | – | CCOc1ccc(C[C@H]2NC(=O)CCSSC[C@@H](C(=O)N3CCC[C@H]3C(=O)N[C@@H](CCCN)C(=O)NCC(N)=O)NC(=O)[C@H](CC(N)=O)NC(=O)[C@H]([C@@H](C)O)NC(=O)[C@H]([C@@H](C)CC)NC2=O)cc1 [ORA, atosiban] ([Mpa][dY](Et)ITNCP[Orn]G-NH2; disulfide 1-6) | not detectable | – | – | – | – | – | – | – |
| 245 ± 61.7 | 965 ± 312 | 81.3 ± 24.7 | 650 ± 78.4 | 237 ± 21.6 | 81.3 ± 24.7 | COc1ccc2c(c1)c(CC(=O)O)c(C)n2C(=O)c1ccc(Cl)cc1 [IND, indomethacin] | – | 67.2±8.4 | 30.0 ± 4.9 | 54.5 | 493.3 ± 89.0 | 2,587.4±676.5 pg/mL | 34.3±6.6% and 34.3±5.9% | 30 |

Reference: patent US10736880B2, “Therapeutics for preterm labor management” (THE BOARD OF REGENTS OF THE UNIVERSITY OF TEXAS SYSTEM, priority 2015, dated 2020)
